US20070021419A1, “2-Aminophenyl-4-phenylpyrimidines as kinase inhibitors” (Cyclacel Limited, priority 2003, published 2007)

Tests used:
[1] = biological target: CDK1/cyclin B (Homo sapiens, UniProt P06493); assay: Kinase assay, radioactive phosphate incorporation, CDK1/cyclin B; format: biochemical; conditions: 100 μM ATP, 30° C.; read-out: Kinase inhibition IC50 CDK1/cyclin B
Outline: (§1)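 Inhibition is measured as reduced transfer of radioactive phosphate to a polypeptide substrate by 2-4 μg of recombinant enzyme. Mixtures with Mg/ATP (100 μM ATP, 15 mM MgCl2, [γ-32P]-ATP) in pH 7.4 MOPS-based buffer incubate at 30° C, are stopped on ice, filtered and counted.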

[2] = biological target: CDK2/cyclin A (Homo sapiens, UniProt P24941); assay: Kinase assay, radioactive phosphate incorporation, CDK2/cyclin A; format: biochemical; conditions: 100 μM ATP, 30° C.; read-out: Kinase inhibition IC50 CDK2/cyclin A
Outline: as §1

[3] = biological target: CDK2/cyclin E (Homo sapiens, UniProt P24941); assay: Kinase assay, radioactive phosphate incorporation, CDK2/cyclin E; format: biochemical; conditions: 100 μM ATP, 30° C.; read-out: Kinase inhibition IC50 CDK2/cyclin E
Outline: as §1

[4] = biological target: CDK4/cyclin D1 (Homo sapiens, UniProt P11802); assay: Kinase assay, radioactive phosphate incorporation, CDK4/cyclin D1; format: biochemical; conditions: 100 μM ATP, 30° C.; read-out: Kinase inhibition IC50 CDK4/cyclin D1
CDK4/cyclin D1, sequence (P11802 whole entry, species assumed): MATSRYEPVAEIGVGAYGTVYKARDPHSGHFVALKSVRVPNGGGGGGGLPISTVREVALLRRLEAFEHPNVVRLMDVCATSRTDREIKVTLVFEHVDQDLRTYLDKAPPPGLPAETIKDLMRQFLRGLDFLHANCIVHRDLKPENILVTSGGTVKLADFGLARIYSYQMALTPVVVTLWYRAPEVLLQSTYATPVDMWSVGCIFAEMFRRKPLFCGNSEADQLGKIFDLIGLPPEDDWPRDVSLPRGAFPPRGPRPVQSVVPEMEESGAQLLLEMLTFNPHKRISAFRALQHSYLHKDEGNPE
CDK4/cyclin D1, sequence (P24385 whole entry partner, species assumed): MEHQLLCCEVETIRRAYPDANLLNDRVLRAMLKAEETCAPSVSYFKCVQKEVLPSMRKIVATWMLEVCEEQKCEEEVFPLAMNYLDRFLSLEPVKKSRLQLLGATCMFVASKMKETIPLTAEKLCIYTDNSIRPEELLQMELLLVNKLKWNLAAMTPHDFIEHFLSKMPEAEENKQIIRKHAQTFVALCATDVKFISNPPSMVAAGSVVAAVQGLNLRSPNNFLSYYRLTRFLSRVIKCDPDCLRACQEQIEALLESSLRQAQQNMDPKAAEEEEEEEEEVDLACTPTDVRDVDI
Outline: as §1

[5] = biological target: CDK7/cyclin H (Homo sapiens, UniProt P50613); assay: Kinase assay, radioactive phosphate incorporation, CDK7/cyclin H; format: biochemical; conditions: 100 μM ATP, 30° C.; read-out: Kinase inhibition IC50 CDK7/cyclin H
CDK7/cyclin H, sequence (P50613 whole entry, species assumed): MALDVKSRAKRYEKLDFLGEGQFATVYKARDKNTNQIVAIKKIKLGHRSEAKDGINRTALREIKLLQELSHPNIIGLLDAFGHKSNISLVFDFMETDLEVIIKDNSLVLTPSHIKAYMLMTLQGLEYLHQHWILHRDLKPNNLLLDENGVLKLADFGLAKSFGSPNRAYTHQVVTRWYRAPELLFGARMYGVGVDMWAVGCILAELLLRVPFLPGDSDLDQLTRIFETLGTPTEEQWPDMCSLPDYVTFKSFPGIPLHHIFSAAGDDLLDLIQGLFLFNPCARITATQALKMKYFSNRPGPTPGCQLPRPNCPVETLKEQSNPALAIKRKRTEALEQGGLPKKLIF
CDK7/cyclin H, sequence (P51946 whole entry partner, species assumed): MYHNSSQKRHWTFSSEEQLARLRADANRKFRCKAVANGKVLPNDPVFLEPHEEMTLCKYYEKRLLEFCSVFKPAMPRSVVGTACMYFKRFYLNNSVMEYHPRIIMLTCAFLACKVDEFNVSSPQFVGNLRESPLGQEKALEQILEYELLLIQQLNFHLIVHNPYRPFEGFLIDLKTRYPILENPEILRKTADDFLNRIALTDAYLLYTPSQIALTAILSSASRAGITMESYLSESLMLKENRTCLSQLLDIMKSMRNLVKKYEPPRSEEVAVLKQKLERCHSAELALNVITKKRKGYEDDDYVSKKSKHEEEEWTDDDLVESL
Outline: as §1

[6] = biological target: CDK9/cyclin T1 (Homo sapiens, UniProt P50750); assay: Kinase assay, radioactive phosphate incorporation, CDK9/cyclin T1; format: biochemical; conditions: 100 μM ATP, 30° C.; read-out: Kinase inhibition IC50 CDK9/cyclin T1
CDK9/cyclin T1, sequence (P50750 whole entry, species assumed): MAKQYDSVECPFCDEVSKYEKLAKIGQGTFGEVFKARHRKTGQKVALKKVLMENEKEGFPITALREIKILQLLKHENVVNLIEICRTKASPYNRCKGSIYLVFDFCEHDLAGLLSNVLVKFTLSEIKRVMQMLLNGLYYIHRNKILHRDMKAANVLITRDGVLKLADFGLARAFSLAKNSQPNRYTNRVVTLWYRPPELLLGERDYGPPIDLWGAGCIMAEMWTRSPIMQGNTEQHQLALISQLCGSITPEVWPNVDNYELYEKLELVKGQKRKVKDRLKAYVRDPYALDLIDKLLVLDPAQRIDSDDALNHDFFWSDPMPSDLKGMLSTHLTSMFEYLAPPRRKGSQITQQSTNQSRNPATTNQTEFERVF
CDK9/cyclin T1, sequence (O60563 whole entry partner, species assumed): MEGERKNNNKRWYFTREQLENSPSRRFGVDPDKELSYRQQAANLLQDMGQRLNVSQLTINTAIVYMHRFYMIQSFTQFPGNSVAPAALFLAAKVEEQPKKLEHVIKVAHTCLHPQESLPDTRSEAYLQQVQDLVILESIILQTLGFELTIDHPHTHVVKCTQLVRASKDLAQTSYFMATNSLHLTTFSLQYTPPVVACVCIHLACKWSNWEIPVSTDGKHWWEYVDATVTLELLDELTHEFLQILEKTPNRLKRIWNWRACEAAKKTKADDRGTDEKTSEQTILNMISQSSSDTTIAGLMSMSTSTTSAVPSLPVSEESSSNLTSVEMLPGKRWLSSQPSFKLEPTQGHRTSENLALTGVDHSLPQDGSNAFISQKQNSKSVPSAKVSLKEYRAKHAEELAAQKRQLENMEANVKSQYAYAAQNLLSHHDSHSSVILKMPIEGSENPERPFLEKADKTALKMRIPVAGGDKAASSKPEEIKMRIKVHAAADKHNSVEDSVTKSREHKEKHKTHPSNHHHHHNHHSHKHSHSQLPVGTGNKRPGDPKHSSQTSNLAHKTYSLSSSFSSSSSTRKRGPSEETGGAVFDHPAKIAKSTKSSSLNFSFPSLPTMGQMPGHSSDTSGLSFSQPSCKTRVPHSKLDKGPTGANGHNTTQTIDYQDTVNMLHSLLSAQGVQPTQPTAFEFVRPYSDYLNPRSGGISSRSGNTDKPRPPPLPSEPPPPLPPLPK
Outline: as §1

[7] = biological target: GSK3β (Homo sapiens, UniProt P49841); assay: Kinase assay, radioactive phosphate incorporation, GSK3β; format: biochemical; conditions: 100 μM ATP, 30° C.; read-out: Kinase inhibition IC50 GSK3β
GSK3β, sequence (P49841 whole entry, species assumed): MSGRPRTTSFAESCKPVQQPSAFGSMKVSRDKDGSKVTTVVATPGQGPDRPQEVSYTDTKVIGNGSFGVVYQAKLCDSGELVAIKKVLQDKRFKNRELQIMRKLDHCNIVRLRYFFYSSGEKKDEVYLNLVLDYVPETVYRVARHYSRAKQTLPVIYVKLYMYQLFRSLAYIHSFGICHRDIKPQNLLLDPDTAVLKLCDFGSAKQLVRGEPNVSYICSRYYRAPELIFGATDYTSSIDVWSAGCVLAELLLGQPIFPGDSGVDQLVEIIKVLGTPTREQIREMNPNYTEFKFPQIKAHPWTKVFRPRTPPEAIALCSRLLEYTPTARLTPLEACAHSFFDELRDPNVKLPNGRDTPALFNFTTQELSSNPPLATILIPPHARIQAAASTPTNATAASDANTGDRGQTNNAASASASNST
Outline: as §1

[8] = biological target: T1, Aurora-A (Homo sapiens, UniProt O14965); assay: Kinase assay, radioactive phosphate incorporation, Aurora-A; format: biochemical; conditions: 100 μM ATP, 30° C.; read-out: Kinase inhibition IC50 Aurora-A
T1 sequence (O14965 1-403): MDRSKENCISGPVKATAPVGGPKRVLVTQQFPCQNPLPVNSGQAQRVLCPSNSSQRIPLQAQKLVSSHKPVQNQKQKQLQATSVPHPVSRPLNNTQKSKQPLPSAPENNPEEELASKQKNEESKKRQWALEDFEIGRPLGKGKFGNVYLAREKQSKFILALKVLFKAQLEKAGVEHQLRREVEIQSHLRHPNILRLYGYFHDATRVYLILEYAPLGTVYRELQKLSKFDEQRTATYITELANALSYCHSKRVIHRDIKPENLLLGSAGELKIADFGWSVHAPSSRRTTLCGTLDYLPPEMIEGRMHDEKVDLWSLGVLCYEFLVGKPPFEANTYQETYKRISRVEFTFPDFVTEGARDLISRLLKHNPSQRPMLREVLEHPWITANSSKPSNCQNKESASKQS
Description: (§2) The compounds from the examples above were investigated for their ability to inhibit the enzymatic activity of various protein kinases. This was achieved by measurement of incorporation of radioactive phosphate from ATP into appropriate polypeptide substrates. Recombinant protein kinases and kinase complexes were produced or obtained commercially. Assays were performed using 96-well plates and appropriate assay buffers (typically 25 mM β-glycerophosphate, 20 mM MOPS, 5 MM EGTA, 1 mM DTT, 1 mM Na3VO3, pH 7.4), into which were added 2-4 μg of active enzyme with appropriate substrates. The reactions were initiated by addition of Mg/ATP mix (15 mM MgCl2+100 μM ATP with 30-50 kBq per well of [γ-^32P]-ATP) and mixtures incubated as required at 30° C. Reactions were stopped on ice, followed by filtration through p81 filterplates or GF/C filterplates (Whatman Polyfiltronics, Kent, UK). After washing 3 times with 75 mM aq orthophosphoric acid, plates were dried, scintillant added and incorporated radioactivity measured in a scintillation counter (TopCount, Packard Instruments, Pangbourne, Berks, UK). Compounds for kinase assay were made up as 10 mM stocks in DMSO and diluted into 10% DMSO in assay buffer.

[9] = tested on: A549; assay: 72-h MTT cytotoxicity assay, A549; format: cell-based; conditions: Homo sapiens, read-out: 72-h MTT IC50 A549, A549 cell line
Outline: (§3)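 Standard proliferation test: 72 h compound exposure at 37° C in triplicate, followed by MTT staining and DMSO solubilisation.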

[10] = tested on: HT29; assay: 72-h MTT cytotoxicity assay, HT29; format: cell-based; conditions: Homo sapiens, HT-29, read-out: 72-h MTT IC50 HT29, HT29 cell line
Outline: as §3

[11] = tested on: Saos-2; assay: 72-h MTT cytotoxicity assay, Saos-2; format: cell-based; conditions: Homo sapiens, read-out: 72-h MTT IC50 Saos-2, Saos-2 cell line
Outline: as §3

[12] = tested on: transformed human cell lines (A549, HT29, Saos-2); assay: 72-h MTT cytotoxicity assay, average of cell lines; format: cell-based; conditions: read-out: 72-h MTT IC50 Average, average of A549, HT29, Saos-2
Outline: as §3

[13] = biological target: PLK-1 (Homo sapiens, UniProt P53350); assay: Kinase assay, radioactive phosphate incorporation, PLK-1; format: biochemical; conditions: 100 μM ATP, 30° C.; read-out: Kinase inhibition IC50 PLK-1
PLK-1, sequence (P53350 whole entry, species assumed): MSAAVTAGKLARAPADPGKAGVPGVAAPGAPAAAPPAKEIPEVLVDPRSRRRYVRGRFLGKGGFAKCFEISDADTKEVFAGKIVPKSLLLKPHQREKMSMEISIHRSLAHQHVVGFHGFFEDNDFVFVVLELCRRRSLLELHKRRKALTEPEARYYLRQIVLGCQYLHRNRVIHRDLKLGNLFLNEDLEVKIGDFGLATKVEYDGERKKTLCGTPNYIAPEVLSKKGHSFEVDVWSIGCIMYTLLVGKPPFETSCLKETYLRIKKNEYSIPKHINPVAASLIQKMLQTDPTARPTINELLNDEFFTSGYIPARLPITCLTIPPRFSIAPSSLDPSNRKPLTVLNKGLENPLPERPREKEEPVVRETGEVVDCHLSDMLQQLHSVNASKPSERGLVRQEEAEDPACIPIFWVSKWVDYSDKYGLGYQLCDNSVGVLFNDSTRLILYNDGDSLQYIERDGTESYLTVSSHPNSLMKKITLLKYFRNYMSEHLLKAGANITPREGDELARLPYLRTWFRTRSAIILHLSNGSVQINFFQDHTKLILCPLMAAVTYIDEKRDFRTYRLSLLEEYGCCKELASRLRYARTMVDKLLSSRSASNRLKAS
Description: as §2

CDK1/cyclin B, sequence (P06493 whole entry, species assumed): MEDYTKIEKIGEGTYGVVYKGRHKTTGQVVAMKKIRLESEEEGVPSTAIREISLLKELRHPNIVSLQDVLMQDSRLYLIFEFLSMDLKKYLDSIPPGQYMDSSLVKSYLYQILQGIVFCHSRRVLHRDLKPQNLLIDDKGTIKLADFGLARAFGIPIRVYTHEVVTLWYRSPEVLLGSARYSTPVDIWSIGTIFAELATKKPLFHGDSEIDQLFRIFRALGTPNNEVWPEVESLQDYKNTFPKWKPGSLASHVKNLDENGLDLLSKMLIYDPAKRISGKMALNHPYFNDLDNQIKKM
CDK1/cyclin B, sequence (P14635 whole entry partner, species assumed): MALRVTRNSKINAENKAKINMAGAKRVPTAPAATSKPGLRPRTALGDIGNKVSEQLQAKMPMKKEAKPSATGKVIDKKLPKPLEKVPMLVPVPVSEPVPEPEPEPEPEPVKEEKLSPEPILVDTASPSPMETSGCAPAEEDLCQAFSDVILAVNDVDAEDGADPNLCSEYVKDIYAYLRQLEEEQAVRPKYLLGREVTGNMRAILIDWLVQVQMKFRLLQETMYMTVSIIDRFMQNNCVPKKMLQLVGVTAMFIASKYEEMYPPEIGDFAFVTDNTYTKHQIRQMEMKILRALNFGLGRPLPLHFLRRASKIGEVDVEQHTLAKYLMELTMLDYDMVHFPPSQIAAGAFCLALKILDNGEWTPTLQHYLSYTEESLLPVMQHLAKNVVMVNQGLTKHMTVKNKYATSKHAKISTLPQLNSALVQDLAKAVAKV

SMILES: NC(=O)C1CCCN(Cc2cccc(-c3ccnc(Nc4cccc([N+](=O)[O-])c4)n3)c2)C1 (stereo not shown) [Compound 99, 1-{3-[2-(3-Nitro-phenylamino)-pyrimidin-4-yl]-benzyl}-piperidine-3-carboxylic acid amide]
- IC50 [1]: 1.2 µM
- IC50 [2]: 1.7 µM
- IC50 [3]: 0.2 µM
- IC50 [4]: 3.8 µM
- IC50 [5]: 0.18 µM
- IC50 [6]: 0.001 µM
- IC50 [7]: 0.04 µM
- IC50 [8]: 1 µM
- IC50 [9]: 3 µM
- IC50 [10]: 2.6 µM
- IC50 [11]: 4.1 µM
- IC50 [12]: 3.2 ± 0.8 µM

SMILES: CN(c1cccc(-c2ccnc(Nc3cccc(O)c3)n2)c1)S(C)(=O)=O [Compound 130, N-{3-[2-(3-Hydroxy-phenylamino)-pyrimidin-4-yl]-phenyl}-N-methyl-methanesulfonamide]
- IC50 [1]: 0.96 µM
- IC50 [2]: 0.62 µM
- IC50 [3]: 0.22 µM
- IC50 [4]: 1.3 µM
- IC50 [5]: 1.3 µM
- IC50 [6]: 0.004 µM
- IC50 [7]: 0.05 µM
- IC50 [8]: 0.12 µM

SMILES: Nc1cccc(-c2ccnc(Nc3ccc(O)cc3)n2)c1 [Compound 15, 4-[4-(3-Amino-phenyl)-pyrimidin-2-ylamino]-phenol]
- IC50 [3]: 0.36 µM
- IC50 [13]: 7.8 µM

SMILES: CCN(CC)Cc1cccc(-c2ccnc(Nc3cccc([N+](=O)[O-])c3)n2)c1 [Compound 84, [4-(3-Diethylaminomethyl-phenyl)-pyrimidin-2-yl]-(3-nitro-phenyl)-amine]
- IC50 [1]: 0.02 µM
- IC50 [2]: 0.02 µM
- IC50 [3]: 0.06 µM
- IC50 [4]: 3.2 µM
- IC50 [5]: 0.09 µM
- IC50 [6]: 0.004 µM
- IC50 [7]: 0.02 µM
- IC50 [8]: 0.57 µM

SMILES: O=[N+]([O-])c1cccc(Nc2nccc(-c3cccc(CO)c3)n2)c1 [Compound 91, {3-[2-(3-Nitro-phenylamino)-pyrimidin-4-yl]-phenyl}-methanol]
- IC50 [1]: 0.59 µM
- IC50 [2]: 0.47 µM
- IC50 [3]: 0.06 µM
- IC50 [4]: 0.87 µM
- IC50 [5]: 0.55 µM
- IC50 [6]: 0.0001 µM
- IC50 [7]: 0.0007 µM
- IC50 [8]: 0.16 µM

SMILES: O=[N+]([O-])c1cccc(Nc2nccc(-c3cccc(CN4CCCC(CO)C4)c3)n2)c1 (stereo not shown) [Compound 105, (1-{3-[2-(3-Nitro-phenylamino)-pyrimidin-4-yl]-benzyl}-piperidin-3-yl)-methanol]
- IC50 [1]: 1.2 µM
- IC50 [2]: 0.35 µM
- IC50 [3]: 0.07 µM
- IC50 [4]: 1.9 µM
- IC50 [5]: 0.08 µM
- IC50 [6]: 0.01 µM
- IC50 [7]: 0.01 µM
- IC50 [8]: 2.6 µM

SMILES: CCN(C(C)=O)c1cccc(-c2ccnc(Nc3ccc(O)cc3)n2)c1 [Compound 10, N-Ethyl-N-{3-[2-(4-hydroxy-phenylamino)-pyrimidin-4-yl]-phenyl}-acetamide]
- IC50 [3]: 0.16 µM
- IC50 [13]: 4.8 µM
- IC50 [9]: 8 µM
- IC50 [10]: 9.7 µM
- IC50 [11]: 5.4 µM
- IC50 [12]: 7.7 ± 2.2 µM

SMILES: COc1ccc(-c2ccnc(Nc3cccc(O)c3)n2)cc1 [Compound 76, 3-[4-(4-Methoxy-phenyl)-pyrimidin-2-ylamino]-phenol]
- IC50 [1]: 0.001 µM
- IC50 [2]: < 0.001 µM
- IC50 [3]: 0.01 µM
- IC50 [4]: 0.01 µM
- IC50 [5]: 0.12 µM
- IC50 [6]: < 0.001 µM
- IC50 [7]: 0.01 µM
- IC50 [8]: 0.05 µM

SMILES: CC(=O)N(CC(C)C)c1cccc(-c2ccnc(Nc3ccc(O)cc3)n2)c1 [Compound 13, N-{3-[2-(4-Hydroxy-phenylamino)-pyrimidin-4-yl]-phenyl}-N-isobutyl-acetamide]
- IC50 [3]: 0.55 µM
- IC50 [13]: 14.5 µM

SMILES: CNc1cccc(-c2ccnc(Nc3ccc(O)cc3)n2)c1 [Compound 14, 4-[4-(3-Methylamino-phenyl)-pyrimidin-2-ylamino]-phenol]
- IC50 [3]: 0.045 µM
- IC50 [13]: 13.7 µM

SMILES: Clc1ccc(Nc2nccc(-c3cccc(Cl)c3)n2)cc1 [Compound 16, (4-Chloro-phenyl)-[4-(3-chloro-phenyl)-pyrimidin-2-yl]-amine]
- IC50 [13]: 8.7 µM

SMILES: CC(=O)Nc1cccc(-c2ccnc(Nc3ccc(O)cc3)n2)c1 [Compound 11, N-{3-[2-(4-Hydroxy-phenylamino)-pyrimidin-4-yl]-phenyl}-acetamide]
- IC50 [3]: 0.25 µM
- IC50 [13]: 6.9 µM
- IC50 [9]: 8.3 µM
- IC50 [10]: 7.5 µM
- IC50 [11]: 7.1 µM
- IC50 [12]: 7.6 ± 0.6 µM

SMILES: CN(C)Cc1cccc(-c2ccnc(Nc3ccc(N4CCOCC4)cc3)n2)c1 [Compound 82, [4-(3-Dimethylaminomethyl-phenyl)-pyrimidin-2-yl]-(4-morpholin-4-yl-phenyl)-amine]
- IC50 [1]: 1.1 µM
- IC50 [2]: 1.5 µM
- IC50 [3]: 0.66 µM
- IC50 [4]: 4.6 µM
- IC50 [5]: 2.9 µM
- IC50 [6]: 0.33 µM
- IC50 [7]: 2.3 µM
- IC50 [8]: 0.4 µM
- IC50 [9]: 6.2 µM
- IC50 [10]: 4.5 µM
- IC50 [11]: 6.6 µM
- IC50 [12]: 5.8 ± 1.1 µM

SMILES: CN(c1cccc(-c2ccnc(Nc3cccc([N+](=O)[O-])c3)n2)c1)S(C)(=O)=O [Compound 129, N-Methyl-N-{3-[2-(3-nitro-phenylamino)-pyrimidin-4-yl]-phenyl}-methanesulfonamide]
- IC50 [1]: 0.83 µM
- IC50 [2]: 0.44 µM
- IC50 [3]: 0.07 µM
- IC50 [4]: 2.6 µM
- IC50 [5]: 0.65 µM
- IC50 [6]: 0.02 µM
- IC50 [7]: 0.13 µM
- IC50 [8]: 0.27 µM

SMILES: CN(c1cccc(-c2ccnc(Nc3ccc(O)cc3)n2)c1)S(C)(=O)=O [Compound 131, N-{3-[2-(4-Hydroxy-phenylamino)-pyrimidin-4-yl]-phenyl}-N-methyl-methanesulfonamide]
- IC50 [1]: 2.1 µM
- IC50 [2]: 0.45 µM
- IC50 [3]: 0.18 µM
- IC50 [4]: 2.5 µM
- IC50 [5]: 1.4 µM
- IC50 [6]: 0.01 µM
- IC50 [7]: 0.13 µM
- IC50 [8]: 0.14 µM

SMILES: O=[N+]([O-])c1ccc(Nc2nccc(-c3cccc([N+](=O)[O-])c3)n2)cc1 [Compound 2, (4-Nitro-phenyl)-[4-(3-nitro-phenyl)-pyrimidin-2-yl]-amine]
- IC50 [13]: 6.5 µM
